The values below are quoted from earlier work in patent publication US20150219673A1, “THE USE OF GENE EXPRESSION PROFILING AS A BIOMARKER FOR ASSESSING THE EFFICACY OF HDAC INHIBITOR TREATMENT IN NEURODEGENERATIVE CONDITIONS” (Massachusetts Institute of Technology, priority 2012, published 2015).

Each structure is given as a SMILES string.

This data set relates to cognitive function. Particulars: see US 2011/0224303; cited from earlier work.

With `Nc1ccc(C(=O)Nc2ccccc2N)cc1` [dinaline], the “cognitive function in vivo” value is “improve cognitive function in vivo”.
